Experimental data as given in patent publication US8852928B2, “LexA-based chemical-inducible gene expression system for use in transgenic animals” (Temasek Life Sciences Laboratory Limited, priority 2007, dated 2014).

Molecular target: T1, LexPR transactivator (Homo sapiens, UniProt P06401)
T1 construct: expressed in transfected cells; host or cells: germline-transgenic zebrafish (Danio rerio) carrying the Ds transposon driver cassette pDs(krt8:LPR-LOP:G4) or derivatives
T1 sequence (P06401 640-914): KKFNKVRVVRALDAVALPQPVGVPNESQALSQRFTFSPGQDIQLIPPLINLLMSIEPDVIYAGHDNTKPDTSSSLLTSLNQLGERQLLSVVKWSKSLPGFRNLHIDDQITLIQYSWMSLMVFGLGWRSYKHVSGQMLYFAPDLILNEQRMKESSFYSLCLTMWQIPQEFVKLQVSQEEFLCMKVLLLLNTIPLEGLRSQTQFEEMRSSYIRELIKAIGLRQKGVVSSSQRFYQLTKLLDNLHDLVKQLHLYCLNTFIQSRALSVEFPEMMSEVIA
Assay: RT-PCR detection of EGFP transcript after mifepristone withdrawal
Type: in vivo, zebrafish
Details: 5 days after withdrawal; 12 hours induction with 1 μM

Question: `CC#C[C@]1(O)CC[C@H]2[C@@H]3CCC4=CC(=O)CCC4=C3[C@@H](c3ccc(N(C)C)cc3)C[C@@]21C` [mifepristone] was tested. Which “EGFP transcript by RT-PCR after withdrawal” value did it give?
Answer: can be detected
